Measurements from US10184933B2, “Compositions, systems and methods for gene expression noise drug screening and uses thereof” (priority 2013, dated 2019).
“Also recorded” adds a separate entry of the source. Where a name gives a salt, the structure may show the parent alone. Read-outs that look alike come from different tables or passages of the source.

Columns and labels:
Type in all cases: cell-based
HIV-1 LTR promoter [1] = assay: Two-reporter system (LTR-d2GFP and LTR-mCherry) noise measurement; conditions: FIG. 6E; for transcriptional burst frequency (decreasing noise in mCherry): transcriptional modifiers; for d2GFP noise / mCherry noise: known transcriptional activators
Protocol: Without being bound by theory, a destabilized reporter is required to observe transcriptional noise with shorter time scales. GFP noise magnitude (quantified by the variance over the mean fluorescence squared, CV^2) and mean fluorescence were measured by high-throughput flow cytometry 24 hours post 10 uM drug exposure. To control for extrinsic variability in gene expression due to cell volume and state a conservative gating on the population forward versus side scatter was applied (See General Methods). A second LTR driving a long-lived mCherry reporter was integrated and screened alongside the destabilized reporter drug target to control for fluctuations in global resources and post-transcriptional noise sources (FIG. 6E).
To distinguish between compounds that primarily target transcription versus post-transcriptional processes and global resources (extrinsic noise) a second reporter of the LTR promoter driving a stable mCherry gene was included in the same targeted cell population used in the drug noise screen (FIG. 6E). The stable reporter averages out and is unaffected by fluctuations due to episodic transcription. Theory predicts that the destabilized d2GFP reporter can detect transcriptional bursting noise contributions (γp>>kon,koff, where γp is the fluorescent reporter degradation rate) while the two reporters together will move their noise magnitudes to changes in non-transcriptional noise sources. Filtering out non-transcriptional noise signatures of VM hits increases the probability for synergistic reactivation of latency. Noise from the two reporters was compared using the same processing as the LTR-d2GFP. The LTR-mCherry ΔCV^2 of the 85 selected VMs primarily land along the ΔCV^2 d2GFP axis. […]. Of these 25 compounds 15 were identified as modifiers of cell cycle, ATP, inflammation, post-translational modifications, and translation.
In addition to the GFP reporter in the LTR-d2GFP cell line, an LTR driving a long half-life mCherry reporter was present in the cell line. […] To remove compounds that altered CV^2 post transcriptionally, compounds that affected the CV^2 long-lived red reporter while conserving its mean mCherry level were removed. This method continues development of the original and decade-old 2-reporter system for intrinsic versus extrinsic noise measurements in bacteria (Elowitz et al., (2002) Science 297:1183-1186).

HIV-1 LTR promoter [2] = conditions: for variability in gene expression (noise magnitude) / mean expression level: known transcriptional modulators applied to the isoclone target; for variability in gene expression (noise magnitude) / mean expression level / burst frequency: FIG. 6D; for burst frequency: activator drugs
[3] = system: latent HIV-1 in primary T-cells
Protocol: FIG. 18A schematically depicts a primary T-cell model of HIV-1 latency 48 h after reactivation with PMA or a subset of noise enhancers (% reactivation percentage is calculated relative to maximal reactivation potential). […] The horizontal line represents the mean calculated Bliss Independence Score (C. I. Bliss, Ann. Appl. Biol. 26:585-615 (1939)), a measure for strict additivity for all of the compounds. FIG. 18B schematically depicts stochastic simulations of noise suppression, which reduces noise without altering the mean expression level but limits reactivation induced by an activator. […] Details are described, e.g., in Example 10.

[4] = system: latent HIV-1 in JLat 8.6 cells
[5] = Pharmakon 1600 library, 10 uM, 24 hours, FIG. 10
[6] = with one or more of PMA, prostratin, TNFα, and bryostatin, FIG. 11

Compound: Nc1ncn([C@@H]2O[C@H](CO)[C@@H](O)[C@H]2O)c(=O)n1 [AZA, 4-Amino-1-(β-D-ribofuranosyl)1,3,5-triazin-2(1H)-one]
- transcriptional burst frequency (decreasing noise in mCherry) (HIV-1 LTR promoter [1]): increase transcriptional burst frequency
- identified as variability enhancer (VE) in noise screen (HIV-1 LTR promoter [2]; [5]): variability enhancers
- variability in gene expression (noise magnitude) (HIV-1 LTR promoter [2]): increase variability in gene expression; also recorded: variability enhancers

Compound: CCC/C=C/C=C/C(=O)O[C@H]1/C(=C/C(=O)OC)C[C@H]2C[C@H]([C@@H](C)O)OC(=O)C[C@H](O)C[C@@H]3C[C@H](OC(C)=O)C(C)(C)[C@](O)(C[C@@H]4C/C(=C/C(=O)OC)C[C@H](/C=C/C(C)(C)[C@]1(O)O2)O4)O3 [Bryostatin, bryostatin]
- d2GFP noise (HIV-1 LTR promoter [1]): decrease both mCherry and d2GFP noise
- mCherry noise (HIV-1 LTR promoter [1]): decrease both mCherry and d2GFP noise
- transcriptional burst frequency (decreasing noise in mCherry) (HIV-1 LTR promoter [1]): increase transcriptional burst frequency
- mean expression level (HIV-1 LTR promoter [2]): scored lower

Compound: Nc1ccccc1NC(=O)c1ccc(CNC(=O)OCc2cccnc2)cc1 [MS-275, 3-pyridinylmethyl [[4-[[(2-aminophenyl)amino]carbonyl]phenyl]methyl]carbamate]
- d2GFP noise (HIV-1 LTR promoter [1]): increase d2GFP noise
- mCherry noise (HIV-1 LTR promoter [1]): decrease mCherry noise
- transcriptional burst frequency (decreasing noise in mCherry) (HIV-1 LTR promoter [1]): increase transcriptional burst frequency
- variability in gene expression (noise magnitude) (HIV-1 LTR promoter [2]): increase variability in gene expression; also recorded: variability enhancers

Compound: CCCCCCCCCCCCCC(=O)O[C@@H]1[C@@H](C)[C@@]2(O)[C@@H](C=C(CO)C[C@]3(O)C(=O)C(C)=C[C@@H]23)[C@@H]2C(C)(C)[C@]12OC(C)=O [PMA, phorbol 12-myristate 13-acetate]
- d2GFP noise (HIV-1 LTR promoter [1]): decrease both mCherry and d2GFP noise
- mCherry noise (HIV-1 LTR promoter [1]): decrease both mCherry and d2GFP noise
- transcriptional burst frequency (decreasing noise in mCherry) (HIV-1 LTR promoter [1]): increase transcriptional burst frequency
- burst frequency (HIV-1 LTR promoter [2]): increase burst frequency
- mean expression level (HIV-1 LTR promoter [2]): increase mean expression level
- variability in gene expression (noise magnitude) (HIV-1 LTR promoter [2]): decrease variability in gene expression; also recorded: decrease noise magnitude

Compound: COC(=O)Nc1nc2ccc(C(=O)c3ccccc3)cc2[nH]1 [V7, mebendazole]
- synergy with PMA [3]: reactivating half of the remaining cells that PMA alone did not reactivate
- increased activation with PMA ([3]; 48 h, relative to maximal reactivation potential): ~20%
- synergy in reactivation of HIV-1 latency [4]: synergized
- identified as variability enhancer (VE) in noise screen (HIV-1 LTR promoter [2]; [5]): variability enhancers

Compound: CC(C)(CO)[C@@H](O)C(=O)NCCCO [V90, dexpanthenol]
- synergy in reactivation of HIV-1 latency [4]: synergized
- identified as variability enhancer (VE) in noise screen (HIV-1 LTR promoter [2]; [5]): variability enhancers

Compound: CCCc1nc(C)c2c(=O)[nH]c(-c3cc(S(=O)(=O)N4CCN(CC)CC4)ccc3OCC)nn12 [V91, vardenafil hydrochloride]
- synergy in reactivation of HIV-1 latency [4]: synergized
- identified as variability enhancer (VE) in noise screen (HIV-1 LTR promoter [2]; [5]): variability enhancers

Compound: COc1ccccc1O [V92, guaiacol]
- synergy in reactivation of HIV-1 latency [4]: synergized
- identified as variability enhancer (VE) in noise screen (HIV-1 LTR promoter [2]; [5]): variability enhancers

Compound: COCCCOc1ccnc(C[S+]([O-])c2nc3ccccc3[nH]2)c1C (stereo not shown) [V93, rabeprazole sodium]
- synergy in reactivation of HIV-1 latency [4]: synergized
- identified as variability enhancer (VE) in noise screen (HIV-1 LTR promoter [2]; [5]): variability enhancers

Compound: CCC(=O)O[C@]1(C(=O)CCl)[C@@H](C)C[C@H]2[C@@H]3CCC4=CC(=O)C=C[C@]4(C)[C@@]3(F)[C@@H](O)C[C@@]21C [V94, clobetasol propionate]
- synergy in reactivation of HIV-1 latency [4]: synergized
- identified as variability enhancer (VE) in noise screen (HIV-1 LTR promoter [2]; [5]): variability enhancers

Compound: COc1c(C)c2c(c(O)c1C/C=C(\C)CCC(=O)O)C(=O)OC2 [V95, mycophenolic acid]
- synergy in reactivation of HIV-1 latency [4]: synergized
- identified as variability enhancer (VE) in noise screen (HIV-1 LTR promoter [2]; [5]): variability enhancers

Compound: CC(=O)OCC(=O)[C@@]1(O)CC[C@H]2[C@@H]3CCC4=CC(=O)CC[C@]4(C)[C@@]3(F)[C@@H](O)C[C@@]21C [V96, fludrocortisone acetate]
- synergy in reactivation of HIV-1 latency [4]: synergized
- identified as variability enhancer (VE) in noise screen (HIV-1 LTR promoter [2]): variability enhancers

Compound: CCN(C(C)=O)c1cccc(-c2ccnc3c(C#N)cnn23)c1 [V97, zaleplon]
- synergy in reactivation of HIV-1 latency [4]: synergized
- identified as variability enhancer (VE) in noise screen (HIV-1 LTR promoter [2]; [5]): variability enhancers

Compound: CCCCC(CC)COc1ccc(-c2nc(-c3ccc(OC)cc3)nc(-c3ccc(OCC(CC)CCCC)cc3O)n2)c(O)c1 (stereo not shown) [V98, bemotrizinol]
- synergy in reactivation of HIV-1 latency [4]: synergized
- identified as variability enhancer (VE) in noise screen (HIV-1 LTR promoter [2]; [5]): variability enhancers

Compound: Oc1ccc(Cl)cc1 [V99, parachlorophenol]
- synergy in reactivation of HIV-1 latency [4]: synergized
- identified as variability enhancer (VE) in noise screen (HIV-1 LTR promoter [2]): variability enhancers

Compound: O=[N+]([O-])OCC(CO[N+](=O)[O-])O[N+](=O)[O-] [V100, nitroglycerin]
- synergy in reactivation of HIV-1 latency [4]: synergized
- identified as variability enhancer (VE) in noise screen (HIV-1 LTR promoter [2]; [5]): variability enhancers

Compound: CC(=O)Nc1c(I)cc(I)c(C(=O)O)c1I [V102, acetriazoic acid]
- synergy in reactivation of HIV-1 latency [4]: synergized
- identified as variability enhancer (VE) in noise screen (HIV-1 LTR promoter [2]): variability enhancers

Compound: TNFα
- d2GFP noise (HIV-1 LTR promoter [1]): decrease both mCherry and d2GFP noise
- mCherry noise (HIV-1 LTR promoter [1]): decrease both mCherry and d2GFP noise
- transcriptional burst frequency (decreasing noise in mCherry) (HIV-1 LTR promoter [1]): increase transcriptional burst frequency
- burst frequency (HIV-1 LTR promoter [2]): increase burst frequency
- mean expression level (HIV-1 LTR promoter [2]): increase mean expression level
- variability in gene expression (noise magnitude) (HIV-1 LTR promoter [2]): decrease variability in gene expression; also recorded: decrease noise magnitude

Compound: acetophenazine maleate [V12]
- synergy in reactivation of HIV-1 latency [4]: synergized
- identified as variability enhancer (VE) in noise screen (HIV-1 LTR promoter [2]): variability enhancers

Compound: carboplatin [V71]
- synergy in reactivation of HIV-1 latency [4, 6]: synergized
- identified as variability enhancer (VE) in noise screen (HIV-1 LTR promoter [2]; [5]): variability enhancers

Compound: colesevalam hydrochloride [V60]
- synergy in reactivation of HIV-1 latency [4]: synergized
- identified as variability enhancer (VE) in noise screen (HIV-1 LTR promoter [2]; [5]): variability enhancers

Compound: colistin sulfate [V45]
- synergy in reactivation of HIV-1 latency [4, 6]: synergized
- identified as variability enhancer (VE) in noise screen (HIV-1 LTR promoter [2]; [5]): variability enhancers

Compound: sucralfate [V79]
- synergy in reactivation of HIV-1 latency [4]: synergized
- identified as variability enhancer (VE) in noise screen (HIV-1 LTR promoter [2]; [5]): variability enhancers
